Data published in publication PMC3523097 (Journal of medicinal chemistry, 2012).
Where “and” joins values, the source holds several entries; their conditions need not be identical. Equal entries are not always repeated. Entries after “also recorded” stand apart in the source; their conditions may differ. Where two headings read alike, the source gives them in different places. Non-standard residues stand in square brackets, D forms with d. Residues, ends and D or L forms follow the SMILES beside them. Dmt = Cc1cc(O)cc(C)c1C[C@H](N)C(=O)O; dCit = NC(=O)NCCC[C@@H](N)C(=O)O; Nle = CCCC[C@H](N)C(=O)O

Columns and labels:
CD-1 mice [1] = test: Antinociception after s.c. administration, radiant heat tail-flick test; format: in vivo; settings: mouse tail-flick test; for ED50 (95% confidence limits): at the time of peak effect
[2] = incubated in sheep blood; cited from earlier work
[3] = tested on: mouse tissues (spleen, liver, lungs, heart, kidneys, serum); test: In vivo tissue biodistribution of [125I]-peptides; settings: for Serum levels: 15 min after administration, rank in words
[4] = tested on: mouse brain (blood-brain barrier); test: Blood-to-brain influx, multiple time regression of [125I]-peptides; settings: for Vbr (brain distribution volume): [125I]-labelled, CD-1 mice, mean ± SEM
CD-1 mice [5] = test: Antinociception after i.p. administration, 55 °C tail withdrawal; format: in vivo, mouse; settings: for Time of maximum antinociceptive activity post i.p. injection: mice; for Antinociceptive effect after i.p. injection, in words: Figure 3; for Antinociceptive activity, times higher than the antinociception of morphine: at the plateau decline phase
MOR [6] = molecular target: T1, MOR (Rattus norvegicus, UniProt P33535); test: MOR receptor binding, displacement of [3H]DAMGO from rat brain membranes; settings: ratio of MOR/DOR/KOR Ki
[7] = tested on: DOR (mouse vas deferens, MVD); test: Mouse vas deferens; format: biochemical
[8] = tested on: MOR (guinea pig ileum, GPI); test: Guinea pig ileum; format: biochemical
[9] = tested on: DOR (mouse vas deferens, MVD); settings: read-out: MVD (δ) IC50; cited from earlier work
[10] = tested on: MOR (guinea pig ileum, GPI); settings: read-out: GPI (μ) IC50; cited from earlier work
MOR [11] = molecular target: T1, MOR; settings: ratio of MOR/DOR/KOR Ki; cited from earlier work
[12] = cited from earlier work

T1 sequence (P33535 whole entry): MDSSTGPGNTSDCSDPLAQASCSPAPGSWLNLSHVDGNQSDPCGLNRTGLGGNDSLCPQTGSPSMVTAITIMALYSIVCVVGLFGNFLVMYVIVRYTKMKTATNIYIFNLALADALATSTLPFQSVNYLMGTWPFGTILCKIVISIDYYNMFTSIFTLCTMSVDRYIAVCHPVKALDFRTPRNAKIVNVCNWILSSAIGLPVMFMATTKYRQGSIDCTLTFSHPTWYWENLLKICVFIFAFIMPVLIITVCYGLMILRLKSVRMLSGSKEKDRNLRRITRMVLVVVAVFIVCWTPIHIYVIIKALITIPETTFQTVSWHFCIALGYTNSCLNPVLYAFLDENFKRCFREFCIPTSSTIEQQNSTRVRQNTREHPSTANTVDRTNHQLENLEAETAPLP

Row | Compound | Serum levels [3] | Duration of antinociceptive action (CD-1 mice [1]) [h] | Time of peak effect (CD-1 mice [1]) | ED50 (95% confidence limits) (CD-1 mice [1]) | Vbr (brain distribution volume) [4] [µL/g] | Ki ratio μ/δ/κ (MOR [6]) | other results
1 | CN1CC[C@]23c4c5ccc(O)c4O[C@H]2[C@@H](O)C=C[C@H]3[C@H]1C5 [Morphine, reference compound] |  |  |  |  |  |  | Relative potency to Morphine (CD-1 mice [1]; from ED50): 1
2 | Cc1cc(O)cc(C)c1C[C@H](N)C(=O)N[C@H](CCCNC(=N)N)C(=O)N[C@@H](Cc1ccccc1)C(=O)N[C@@H](CCCCN)C(N)=O [Peptide 1, H-Dmt-D-Arg-Phe-Lys-NH2, reference compound] | highest | 6 to 7 | 2 h | 0.15 (0.07-0.32) μmol/kg | 19.25 ± 1.02 |  | t1/2 in sheep blood [2]: 108 min; Duration of antinociceptive action (CD-1 mice [1]; listed as [Dmt^1]-DALDA): > 7 h; Time of maximum antinociceptive activity post i.p. injection (CD-1 mice [5]): 60 min
3 | CCCC[C@H](NC(=O)[C@H](Cc1ccccc1)NC(=O)[C@@H](CCCN=C(N)N)NC(=O)[C@@H](N)Cc1c(C)cc(O)cc1C)C(N)=O [Peptide 9, H-Dmt-D-Arg-Phe-Nle-NH2] (H-[Dmt][dR]F[Nle]-NH2) | lowest |  |  |  | 27.43 ± 4.80 |  | 
4 | CCCC[C@H](NC(=O)[C@H](Cc1ccccc1)NC(=O)[C@@H](CCCNC(=N)N)NC(=O)[C@@H](N)Cc1c(C)cc(O)cc1C)C(N)=O [Peptide 9, H-Dmt-D-Arg-Phe-Nle-NH2] (H-[Dmt][dR]F[Nle]-NH2) |  |  |  | >6 µmol/kg |  | 1/66/70 | Antinociceptive effect after s.c. administration, in words (CD-1 mice [1]): no dose-related antinociception; also recorded: failed to reach a 50% effect after s.c. administration of 6 μmol/kg; Antinociceptive effect after i.p. injection, in words (CD-1 mice [5]): relatively low antinociceptive activity
5 | Cc1cc(O)cc(C)c1C[C@H](N)C(=O)N[C@H](CCCNC(N)=O)C(=O)N[C@@H](Cc1ccccc1)C(=O)N[C@@H](CCCCN)C(N)=O [Peptide 10, H-Dmt-D-Cit-Phe-Lys-NH2] | intermediate | 2 to 3 | 1 h | 0.23 (0.10-0.55) μmol/kg | 27.12 ± 3.76 | 1/88/37 | Time of maximum antinociceptive activity post i.p. injection (CD-1 mice [5]): 45 min
6 | CCCC[C@H](NC(=O)[C@H](Cc1ccccc1)NC(=O)[C@@H](CCCNC(N)=O)NC(=O)[C@@H](N)Cc1c(C)cc(O)cc1C)C(N)=O [Peptide 11, H-Dmt-D-Cit-Phe-Nle-NH2] (H-[Dmt][dCit]F[Nle]-NH2) |  |  |  |  |  | 1/5/125 | 
7 | Cc1cc(O)cc(C)c1C[C@H](N)C(=O)N[C@H](CCCNC(=N)N)C(=O)N[C@@H](Cc1ccccc1)C(=O)N(C)[C@@H](CCCCN)C(N)=O [Peptide 12, H-Dmt-D-Arg-Phe-NMeLys-NH2] | intermediate | > 7 | 1 to 4 h and 2 h | 0.13 (0.06-0.30) μmol/kg | 21.99 ± 2.81 | 1/1190/216 | Antinociceptive activity, times higher than the antinociception of morphine (CD-1 mice [5]): 13 - 15; Time of maximum antinociceptive activity post i.p. injection (CD-1 mice [5]): 60 to 90 min
8 | CCCC[C@@H](C(N)=O)N(C)C(=O)[C@H](Cc1ccccc1)NC(=O)[C@@H](CCCNC(=N)N)NC(=O)[C@@H](N)Cc1c(C)cc(O)cc1C [Peptide 13, H-Dmt-D-Arg-Phe-NMeNle-NH2] |  |  |  |  |  | 1/62/55 | 
9 | Cc1cc(O)cc(C)c1C[C@H](N)C(=O)N[C@H](CCCNC(N)=O)C(=O)N[C@@H](Cc1ccccc1)C(=O)N(C)[C@@H](CCCCN)C(N)=O [Peptide 14, H-Dmt-D-Cit-Phe-NMeLys-NH2] | intermediate | 2 to 3 | 1 h | 0.16 (0.07-0.36) μmol/kg | 17.13 ± 2.36 | 1/42/12 | Antinociceptive activity, times higher than the antinociception of morphine (CD-1 mice [5]): 13 - 15; Time of maximum antinociceptive activity post i.p. injection (CD-1 mice [5]): 60 to 90 min
10 | Cc1cc(O)cc(C)c1C[C@H](N)C(=O)N[C@H](CCCNC(=N)N)C(=O)N[C@H]1Cc2ccccc2CN([C@@H](CCCCN)C(N)=O)C1=O [Peptide 16, H-Dmt-D-Arg-Aba-Lys-NH2] |  |  |  |  |  |  | MVD (δ) IC25 ([7]; IC25 given instead of IC50): 64 (IC25) nM
11 | CCCC[C@@H](C(N)=O)N1Cc2ccccc2C[C@H](NC(=O)[C@@H](CCCNC(=N)N)NC(=O)[C@@H](N)Cc2c(C)cc(O)cc2C)C1=O [Peptide 17, H-Dmt-D-Arg-Aba-Nle-NH2] |  |  |  |  |  | 1/17/3 | 
12 | CCCC[C@@H](C(N)=O)N1Cc2ccccc2C[C@H](NC(=O)[C@@H](CCCNC(N)=O)NC(=O)[C@@H](N)Cc2c(C)cc(O)cc2C)C1=O [Peptide 19, H-Dmt-D-Cit-Aba-Nle-NH2] |  |  |  |  |  | 1/3/12 | DOR functional profile ([7]; in words): DOR full agonist; GPI (μ) IC35 ([8]; IC35 given instead of IC50): 0.78 (IC35) nM; MOR functional profile ([8]; in words): MOR partial agonist
13 | Cc1cc(O)cc(C)c1C[C@H](N)C(=O)N[C@H](CCCNC(=N)N)C(=O)N[C@H]1Cc2ccccc2CN(CC(N)=O)C1=O [Peptide 20, H-Dmt-D-Arg-Aba-Gly-NH2, reference compound] | intermediate | 6 to 7 | 1 h | 0.47 (0.18-1.2) μmol/kg | 24.01 ± 3.41 |  | IC50 [9]: 420 pM; Tissue distribution (percentage of mass-corrected injected dose), in words ([3]; [125I]-peptide, mice, Figure 2): higher kidney uptake; IC50 [10]: 320 pM; Antinociceptive effect after i.p. injection, in words (CD-1 mice [5]): slow and shallow antinociceptive response; Ki ratio μ/δ/κ (MOR [11]): 1/4/787
14 | C[C@@H](NC(=O)[C@@H](N)Cc1ccc(O)cc1)C(=O)N[C@@H](Cc1ccccc1)C(=O)NCC(=O)N[C@@H](Cc1ccc(O)cc1)C(=O)N1CCC[C@H]1C(=O)N[C@@H](CO)C(N)=O [dermorphin, Tyr-D-Ala-Phe-Gly-Tyr-Pro-Ser-NH2, reference compound] |  |  |  |  |  |  | mean influx transfer constant (mean Kin) ([4]; I-125 labelled control, over 15 minutes for dermorphin): 0.173 ± 0.137 µL/g/min; Antinociceptive effect after i.p. injection, in words (CD-1 mice [5]): inability of dermorphin to induce a significant antinociceptive effect
15 | endomorphin-1 |  |  |  |  |  |  | t1/2 in mouse plasma [12]: 4 to 7 min
16 | endomorphin-2 |  |  |  |  |  |  | t1/2 in mouse plasma [12]: 4 to 7 min
